Assay results published in patent publication US8871753B2, “Macrocyclic compounds and their use as kinase inhibitors” (Incyte Corporation, priority 2008, dated 2014).
Counter-ions that a name gives are not always drawn. Like-named read-outs stand apart in the source and are kept apart here.

Legend:
Type in all cases: biochemical
[1] = molecular target: T1, human JAK1 (a.a. 837-1142) (Homo sapiens, UniProt P23458); experiment: In vitro JAK kinase assay (HTRF, phosphorylation of a biotinylated peptide), JAK1; settings: read-out: JAK1 IC50
T1 construct: human JAK1 (a.a. 837-1142); His tag (N); made in house; host or cells: insect cells (baculovirus)
T1 sequence (P23458 849-1154): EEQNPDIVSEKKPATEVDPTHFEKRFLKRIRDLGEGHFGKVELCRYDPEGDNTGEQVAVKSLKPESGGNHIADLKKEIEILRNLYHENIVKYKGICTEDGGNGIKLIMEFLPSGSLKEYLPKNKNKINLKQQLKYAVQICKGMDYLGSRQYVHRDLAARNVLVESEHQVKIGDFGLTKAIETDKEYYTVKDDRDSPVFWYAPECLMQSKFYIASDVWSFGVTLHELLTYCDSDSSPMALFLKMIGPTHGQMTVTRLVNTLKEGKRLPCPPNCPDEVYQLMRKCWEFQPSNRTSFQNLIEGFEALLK
Method in brief: (§1)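 Phosphorylation of a biotinylated peptide by the JAK kinase domain, detected by HTRF with Eu-Py20 and SA-APC. ATP was 90 μM for JAK1, 30 μM for JAK2 and 3 μM for JAK3. Reactions ran 1 h at room temperature and were stopped with EDTA, followed by 40 min antibody binding.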

[2] = molecular target: T2, human JAK2 (a.a. 828-1132) (Homo sapiens, UniProt O60674); experiment: In vitro JAK kinase assay (HTRF, phosphorylation of a biotinylated peptide), JAK2
T2 construct: JAK2 (a.a. 828-1132); His tag (N); made in house; host or cells: insect cells (baculovirus)
T2 sequence (O60674 828-1132): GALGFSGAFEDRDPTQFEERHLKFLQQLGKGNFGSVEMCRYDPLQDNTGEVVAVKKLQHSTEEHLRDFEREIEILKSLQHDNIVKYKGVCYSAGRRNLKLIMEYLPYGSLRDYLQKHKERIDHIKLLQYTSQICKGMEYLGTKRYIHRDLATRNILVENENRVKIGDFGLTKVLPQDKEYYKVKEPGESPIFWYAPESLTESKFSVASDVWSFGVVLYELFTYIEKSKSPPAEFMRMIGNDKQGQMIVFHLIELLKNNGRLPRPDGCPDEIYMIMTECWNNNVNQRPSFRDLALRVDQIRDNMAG
Method in brief: as §1

[3] = molecular target: T3, human JAK3 (a.a. 781-1124) (Homo sapiens, UniProt P52333); experiment: In vitro JAK kinase assay (HTRF, phosphorylation of a biotinylated peptide), JAK3
T3 construct: JAK3 (a.a. 781-1124); His tag (N); made in house; host or cells: insect cells (baculovirus)
T3 sequence (P52333 781-1124): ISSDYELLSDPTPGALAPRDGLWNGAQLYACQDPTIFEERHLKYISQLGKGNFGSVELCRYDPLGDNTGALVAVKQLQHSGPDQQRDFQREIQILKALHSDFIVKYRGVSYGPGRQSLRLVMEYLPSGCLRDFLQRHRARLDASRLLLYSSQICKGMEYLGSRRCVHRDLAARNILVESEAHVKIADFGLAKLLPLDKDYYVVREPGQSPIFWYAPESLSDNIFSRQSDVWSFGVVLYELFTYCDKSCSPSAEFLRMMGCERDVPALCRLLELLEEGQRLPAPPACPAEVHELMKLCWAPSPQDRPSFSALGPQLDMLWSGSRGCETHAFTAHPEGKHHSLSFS
Method in brief: as §1

[4] = molecular target: TYK2 (Homo sapiens, UniProt P29597); experiment: TYK2 kinase inhibition (Table A1)
Sequence of TYK2 (P29597 whole entry): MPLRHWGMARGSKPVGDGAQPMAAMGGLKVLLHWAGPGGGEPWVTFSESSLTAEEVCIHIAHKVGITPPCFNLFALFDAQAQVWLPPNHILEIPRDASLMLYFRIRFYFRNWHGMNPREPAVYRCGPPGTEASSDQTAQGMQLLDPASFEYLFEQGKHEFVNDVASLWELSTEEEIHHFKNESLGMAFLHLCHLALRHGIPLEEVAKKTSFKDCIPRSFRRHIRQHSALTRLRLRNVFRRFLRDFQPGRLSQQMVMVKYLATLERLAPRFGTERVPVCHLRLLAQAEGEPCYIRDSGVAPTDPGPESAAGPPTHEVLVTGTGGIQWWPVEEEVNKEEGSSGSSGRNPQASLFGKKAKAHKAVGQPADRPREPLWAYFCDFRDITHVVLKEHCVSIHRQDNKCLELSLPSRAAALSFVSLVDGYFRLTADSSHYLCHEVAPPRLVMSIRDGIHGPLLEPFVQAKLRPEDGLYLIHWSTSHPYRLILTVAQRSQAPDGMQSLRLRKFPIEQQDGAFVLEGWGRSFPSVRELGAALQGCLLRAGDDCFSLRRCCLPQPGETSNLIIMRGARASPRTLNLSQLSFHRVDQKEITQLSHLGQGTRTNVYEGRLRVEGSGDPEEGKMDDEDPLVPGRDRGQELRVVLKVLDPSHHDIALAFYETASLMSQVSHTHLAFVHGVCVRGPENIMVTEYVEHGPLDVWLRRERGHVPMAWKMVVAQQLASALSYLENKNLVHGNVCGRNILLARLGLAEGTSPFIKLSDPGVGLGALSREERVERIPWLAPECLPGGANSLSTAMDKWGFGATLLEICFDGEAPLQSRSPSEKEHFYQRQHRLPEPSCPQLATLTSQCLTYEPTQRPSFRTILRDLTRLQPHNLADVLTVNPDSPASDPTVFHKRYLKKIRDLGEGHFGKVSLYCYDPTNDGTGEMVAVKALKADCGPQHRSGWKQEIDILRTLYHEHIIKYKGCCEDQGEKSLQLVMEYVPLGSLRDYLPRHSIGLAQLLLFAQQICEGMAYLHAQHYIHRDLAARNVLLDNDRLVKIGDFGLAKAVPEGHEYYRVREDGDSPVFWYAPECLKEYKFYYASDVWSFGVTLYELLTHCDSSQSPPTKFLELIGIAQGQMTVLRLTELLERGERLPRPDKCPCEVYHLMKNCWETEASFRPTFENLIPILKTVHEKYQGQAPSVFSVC

[5] = molecular target: T4, Recombinant Human Anaplastic Lymphoma Kinase (Homo sapiens, UniProt Q9UM73); experiment: ALK HTRF kinase assay
T4 construct: purchased Invitrogen, Carlsbad, Calif
T4 sequence (Q9UM73 19-1620): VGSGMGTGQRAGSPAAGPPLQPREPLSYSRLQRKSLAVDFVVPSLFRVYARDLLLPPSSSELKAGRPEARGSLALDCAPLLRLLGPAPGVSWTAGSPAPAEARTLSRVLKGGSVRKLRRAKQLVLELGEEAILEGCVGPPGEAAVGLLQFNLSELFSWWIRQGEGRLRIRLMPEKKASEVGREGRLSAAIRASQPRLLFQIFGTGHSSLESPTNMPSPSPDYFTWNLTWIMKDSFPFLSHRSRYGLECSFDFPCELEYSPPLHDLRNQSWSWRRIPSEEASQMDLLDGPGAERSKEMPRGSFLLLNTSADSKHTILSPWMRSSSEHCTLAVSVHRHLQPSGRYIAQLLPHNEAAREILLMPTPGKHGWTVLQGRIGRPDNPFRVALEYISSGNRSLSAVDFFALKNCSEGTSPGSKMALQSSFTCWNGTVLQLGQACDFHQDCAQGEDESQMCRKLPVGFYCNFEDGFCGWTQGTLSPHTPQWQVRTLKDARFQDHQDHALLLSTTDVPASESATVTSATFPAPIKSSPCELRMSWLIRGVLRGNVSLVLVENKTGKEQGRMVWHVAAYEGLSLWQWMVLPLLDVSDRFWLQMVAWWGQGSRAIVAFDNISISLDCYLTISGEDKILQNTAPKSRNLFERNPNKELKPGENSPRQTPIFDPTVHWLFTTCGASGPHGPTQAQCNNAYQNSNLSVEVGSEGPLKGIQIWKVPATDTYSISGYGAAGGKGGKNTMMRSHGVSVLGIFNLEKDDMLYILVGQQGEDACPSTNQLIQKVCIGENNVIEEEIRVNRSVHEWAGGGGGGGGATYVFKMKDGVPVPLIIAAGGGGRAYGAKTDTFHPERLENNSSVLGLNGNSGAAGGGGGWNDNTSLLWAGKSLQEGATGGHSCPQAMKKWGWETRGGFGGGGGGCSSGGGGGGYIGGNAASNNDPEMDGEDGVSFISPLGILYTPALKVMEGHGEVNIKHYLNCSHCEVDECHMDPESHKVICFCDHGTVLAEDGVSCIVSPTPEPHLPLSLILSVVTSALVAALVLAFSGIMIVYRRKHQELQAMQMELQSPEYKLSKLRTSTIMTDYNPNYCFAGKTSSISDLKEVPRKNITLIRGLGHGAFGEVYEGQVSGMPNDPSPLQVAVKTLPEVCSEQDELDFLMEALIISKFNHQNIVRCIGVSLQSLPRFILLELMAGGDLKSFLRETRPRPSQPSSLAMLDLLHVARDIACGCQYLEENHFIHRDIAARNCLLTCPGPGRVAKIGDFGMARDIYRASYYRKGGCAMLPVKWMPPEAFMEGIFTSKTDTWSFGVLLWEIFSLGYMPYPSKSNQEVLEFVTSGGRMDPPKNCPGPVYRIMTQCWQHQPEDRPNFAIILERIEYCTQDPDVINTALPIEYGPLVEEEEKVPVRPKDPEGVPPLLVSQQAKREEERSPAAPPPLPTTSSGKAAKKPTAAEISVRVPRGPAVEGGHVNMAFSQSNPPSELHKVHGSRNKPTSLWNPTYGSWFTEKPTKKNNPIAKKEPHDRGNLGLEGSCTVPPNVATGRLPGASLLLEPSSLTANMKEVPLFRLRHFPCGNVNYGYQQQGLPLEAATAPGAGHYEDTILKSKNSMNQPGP
Method in brief: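 Recombinant human ALK phosphorylated a biotinylated synthetic peptide. Phosphotyrosine was detected by TR-FRET between a Eu-labelled anti-phosphotyrosine antibody and streptavidin-allophycocyanin. IC50 values came from fitting signal against inhibitor concentration to a four-parameter logistic equation with variable Hill slope.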

[6] = method AA1 (90 μM ATP) or AA2 (1000 μM ATP), not stated per value
[7] = method AA1 (30 μM ATP) or AA2 (1000 μM ATP), not stated per value
[8] = method AA1 (3 μM ATP) or AA2 (1000 μM ATP), not stated per value
[9] = compound at 500 nM or 1 mM, 90 μM ATP
[10] = compound at a concentration of 500 nM or 1 mM (not specified), cells shown as percentage

Row | IC50 [1, 6] [nM] | IC50 [2, 7] [nM] | IC50 [3, 8] [nM] | IC50 [4] [nM] | ALK % of inhibition at a concentration of 500 nM or 1 mM [5, 9] [%] | IC50 ([1]; Table B1) [nM] | IC50 ([2]; Table B1) [nM] | IC50 ([3]; Table B1) [nM] | IC50 ([4]; Table B1) [nM] | Compound | other results
1 | 5 | 90 | > 400 | > 400 | 41 | – | – | – | – | O=C(CC1CCN(S(=O)(=O)c2ccccc2Cl)CC1)Nc1ccc2cc1CCc1cncc(c1)Nc1ncc(Cl)c(n1)N2 [Example A223, N-[6-Chloro-2,4,8,18,22-pentaazatetracyclo[14.3.1.1(3,7).1(9,13)]docosa-1(20),3(22),4,6,9(21),10,12,16,18-nonaen-12-yl]-2-{1-[(2-chlorophenyl)sulfonyl]piperidin-4-yl}acetamide bis(trifluoroacetate)] | –
2 | – | – | – | – | – | 6.5 | 11 | 1170 | 34 | Cc1ccnc(Nc2ccc3cc2CCc2cccc(c2)Nc2ncc(Cl)c(n2)N3)n1 [Example B276, 6-Chloro-N-(4-methylpyrimidin-2-yl)-2,4,8,22-tetraazatetracyclo[14.3.1.1(3,7).1(9,13)]docosa-1(20),3(22),4,6,9(21),10,12,16,18-nonaen-12-amine bis(trifluoroacetate)] | ALK % of inhibition at a concentration of 500 nM or 1 mM [5, 10]: 22%
3 | – | – | – | – | – | 2.5 | 2.3 | 9.7 | 3.6 | Cc1cccc(C(=O)Nc2ccc3cc2CCc2cccc(c2)Nc2ncc(Cl)c(n2)N3)c1 [Example B46, N-[6-Chloro-2,4,8,22-tetraazatetracyclo[14.3.1.1(3,7).1(9,13)]docosa-1(20), 3(22),4,6,9(21),10,12,16,18-nonaen-12-yl]-3-methylbenzamide trifluoroacetate] | IC50 ([5]; Table B1, cells without percent sign): 330 nM
4 | 10 | 21 | 156 | 15 | 24 | – | – | – | – | CC(C)C(=O)N1CCC(CC(=O)Nc2ccc3cc2CCc2cncc(c2)Nc2ncc(Cl)c(n2)N3)CC1 [Example A103, N-[6-Chloro-2,4,8,18,22-pentaazatetracyclo[14.3.1.1(3,7).1(9,13)]docosa-1(20),3(22),4,6,9(21),10,12,16,18-nonaen-12-yl]-2-(1-isobutyrylpiperidin-4-yl)acetamide bis(trifluoroacetate)] | –
5 | – | – | – | – | – | – | – | – | – | O=C(Nc1ccccc1)N1CCN(c2cc(-c3cc4cc(c3)Nc3ncc(Cl)c(n3)Nc3cccc(c3)OCC4)ccn2)CC1 [Example D44, 4-{4-[6-Chloro-14-oxa-2,4,8,23-tetraazatetracyclo[15.3.1.1(3,7).1(9,13)]tricosa-1(21),3(23),4,6,9(22),10,12,17,19-nonaen-19-yl]pyridin-2-yl}-N-phenylpiperazine-1-carboxamide bis(trifluoroacetate)] | IC50 ([1]; Table D1): 2.6 nM; IC50 ([2]; Table D1): 1.5 nM; IC50 ([3]; Table D1): 18 nM; IC50 ([4]; Table D1): 15 nM; IC50 ([5]; Table D1, 90 μM ATP): 480 nM
6 | – | – | – | > 1000 | – | – | – | – | – | O=C1NCc2cccc(c2)Nc2ncc(Cl)c(n2)Nc2cccc1c2 [Example C4, 6-Chloro-2,4,8,15,23-pentaazatetracyclo[15.3.1.1(3,7).1(9,13)]tricosa-1(21),3(23),4,6,9(22),10,12,17,19-nonaen-14-one] | IC50 [1]: 361 nM; IC50 [2]: 350 nM; IC50 [3]: 317 nM; IC50 [5]: > 1000 nM
7 | 116 | > 200 | > 200 | > 200 | 21 | – | – | – | – | O=C(CC1CCN(C(=O)c2ccncc2)CC1)Nc1ccc2cc1CCc1cncc(c1)Nc1ncc(Cl)c(n1)N2 [Example A189, N-[6-Chloro-2,4,8,18,22-pentaazatetracyclo[14.3.1.1(3,7).1(9,13)]docosa-1(20),3(22),4,6,9(21),10,12,16,18-nonaen-12-yl]-2-(1-isonicotinoylpiperidin-4-yl)acetamide tris(trifluoroacetate)] | –
8 | 9.6 | 20 | 31 | 39 | 29 | – | – | – | – | O=C(Nc1ccc2cc1CCc1cccc(c1)Nc1ncc(Cl)c(n1)N2)[C@@H]1CCNC1 [Example A45, (3R)—N-[6-chloro-2,4,8,22-tetraazatetracyclo[14.3.1.1(3,7).1(9,13)]docosa-1(20),3(22),4,6,9(21),10,12,16,18-nonaen-12-yl]pyrrolidine-3-carboxamide bis(trifluoroacetate)] | –
9 | – | – | – | – | – | – | – | – | – | O=S1(=O)CCOc2cccc(c2)Nc2ncc(Cl)c(n2)Nc2cccc1c2 [Example D14, 6-Chloro-17-oxa-14-thia-2,4,8,24-tetraazatetracyclo[16.3.1.1(3,7).1(9,13)]tetracosa-1(22),3(24),4,6,9(23),10,12,18,20-nonaene 14,14-dioxide trifluoroacetate] | IC50 ([1]; Table D1): 2.2 nM; IC50 ([2]; Table D1): 2.2 nM; IC50 ([3]; Table D1): 11 nM; IC50 ([4]; Table D1): 5 nM; IC50 ([5]; Table D1, 90 μM ATP): 732 nM
10 | 20 | 119 | > 400 | 235 | 38 | – | – | – | – | O=C(CC1CCN(c2ccncc2F)CC1)Nc1ccc2cc1CCc1cncc(c1)Nc1ncc(Cl)c(n1)N2 [Example A243, N-[6-Chloro-2,4,8,18,22-pentaazatetracyclo[14.3.1.1(3,7).1(9,13)]docosa-1(20),3(22),4,6,9(21),10,12,16,18-nonaen-12-yl]-2-[1-(3-fluoropyridin-4-yl)piperidin-4-yl]acetamide tris(trifluoroacetate)] | –
11 | – | – | – | – | – | 7.9 | 18 | 122 | 16 | CC(C)(C)OC(=O)N1CCCC(NC(=O)Nc2ccc3cc2CCc2cccc(c2)Nc2ncc(Cl)c(n2)N3)C1 (centres unmarked) [Example B237, tert-Butyl 3-[({[6-chloro-2,4,8,22-tetraazatetracyclo[14.3.1.1(3,7).1(9,13)]docosa-1(20),3(22),4,6,9(21),10,12,16,18-nonaen-12-yl]amino}carbonyl)amino]piperidine-1-carboxylate] | ALK % of inhibition at a concentration of 500 nM or 1 mM [5, 10]: 6.2%
12 | 96 | 917 | > 10000 | 2500 | 17 | – | – | – | – | Cc1noc(C)c1C(=O)N1CCC(CC(=O)Nc2ccc3cc2CCc2cncc(c2)Nc2ncc(Cl)c(n2)N3)CC1 [Example A156, N-[6-Chloro-2,4,8,18,22-pentaazatetracyclo[14.3.1.1(3,7).1(9,13)]docosa-1(20),3(22),4,6,9(21),10,12,16,18-nonaen-12-yl]-2-{1-[(3,5-dimethylisoxazol-4-yl)carbonyl]piperidin-4-yl}acetamide bis(trifluoroacetate)] | –
13 | – | – | – | – | – | 6.6 | 16 | 29 | 29 | CC(C)(C)OC(=O)N1CC[C@@H](NCc2ccc3cc2CCc2cccc(c2)Nc2ncc(Cl)c(n2)N3)C1 [Example B219, tert-Butyl (3R)-3-({[6-chloro-2,4,8,22-tetraazatetracyclo[14.3.1.1(3,7).1(9,13)]docosa-1(20),3(22),4,6,9(21),10,12,16,18-nonaen-12-yl]methyl}amino)pyrrolidine-1-carboxylate bis(trifluoroacetate)] | ALK % of inhibition at a concentration of 500 nM or 1 mM [5, 10]: 26%
14 | – | – | – | – | – | 1 | 29 | 245 | 33 | O=C(Nc1ccc2cc1CCc1cncc(c1)Nc1ncc(Cl)c(n1)N2)N[C@H]1CCN(C(=O)c2ccccc2)C1 [Example B227, N-[(3S)-1-benzoylpyrrolidin-3-yl]-N′-[6-chloro-2,4,8,18,22-pentaazatetracyclo[14.3.1.1(3,7).1(9,13)]docosa-1(20),3(22),4,6,9(21),10,12,16,18-nonaen-12-yl]urea bis(trifluoroacetate)] | ALK % of inhibition at a concentration of 500 nM or 1 mM [5, 10]: 25%
15 | – | – | – | – | – | – | – | – | – | Clc1cnc2nc1Nc1cccc(c1)NCCOc1cccc(c1)N2 [Example D72, 6-Chloro-17-oxa-2,4,8,14,24-pentaazatetracyclo[16.3.1.1(3,7).1(9,13)]tetracosa-1(22),3(24),4,6,9(23),10,12,18,20-nonaene bis(trifluoroacetate)] | IC50 ([1]; Table D1): 12 nM; IC50 ([2]; Table D1): 2.2 nM; IC50 ([3]; Table D1): 7.4 nM; IC50 ([4]; Table D1): 6.9 nM; IC50 ([5]; Table D1, 90 μM ATP): 772 nM
16 | 49 | 13 | 147 | 33 | 19 | – | – | – | – | CC(C)(C)NC(=O)N1CCC(CC(=O)Nc2ccc3cc2CCc2cccc(c2)Nc2ncc(Cl)c(n2)N3)CC1 [Example A85, N-(tert-Butyl)-4-(2-{[6-chloro-2,4,8,22-tetraazatetracyclo[14.3.1.1(3,7).1(9,13)]docosa-1(20),3(22),4,6,9(21),10,12,16,18-nonaen-12-yl]amino}-2-oxoethyl)piperidine-1-carboxamide trifluoroacetate] | –
